{
  "source": "patent US5849729A",
  "about": "“Use of hydrolyzed cocoa butter for percutaneous absorption” (Hershey Foods Corporation, priority 1995, dated 1998)",
  "key": {"[1]": {"assay": "In-vitro percutaneous absorption of retinoic acid and triamcinolone acetonide from two cocoa butter vehicles (Franz cells, 48 h)", "conditions": "for % Abs (% Absorbed) / % Absorbed / total absorption: percent of applied dose", "source_text": "The objective of this study was to measure the permeation of retinoic acid and triamcinolone acetonide through human skin in-vitro from two cocoa butter vehicles.\nTwo cocoa butter vehicles supplied by Hershey Foods Corporation were utilized: (1) pure cocoa butter and (2) partially hydrolyzed cocoa butter emulsion. Radioactive [11,12-^3 H] [retinoic acid (NET 920, Lot 2930-067, specific activity 1 mCi/ml) and [6,7-^3 H]-triamcinolone acetonide (NET 470, Lot 2904-170, specific activity 1 mCi/ml) were obtained from Dupont-New England Nuclear Corporation, Boston, Mass.\nEach of the two cocoa butter vehicles was spiked separately with ^3 H-retinoic acid and ^3 H-Triamcinolone acetonide to give a total of four radioactive formulations for study. This was done by adding 25 μl (containing 25 μCi) of each tracer solution to approximately 1 gram of each vehicle and mixing with the tip of the dispensing micropipette. The pure cocoa butter vehicle was liquified by holding it under warm tap water prior to spiking. This was not done with the partially hydrolyzed cocoa butter emulsion. Neither formulation was used for three days after spiking to allow for diffusional mixing to take place. Final radioactive concentrations of each formulation were: […]\nHuman trunk skin without obvious signs of disease was used throughout. It was obtained within 24 hours of death, dermatomed to a thickness of approximately 0.25 mm, cryopreserved and sealed in water vapor-impermeableplastic bags. It was stored at -70° C. until the day of use then thawed by placing the bag in 37° C. water.\nSkin from a single donor was cut into multiple sections large enough to fit on 0.8 cm^2 Franz cells. The dermal chamber was filled with isotonic saline, pH 7.4, into which a small magnetic stirring bar was placed. The epidermal chamber was left open to the ambient laboratory environment, approximately 22° C. and 40-60% RH. The cells were placed in a diffusion apparatus in which the dermal receptor solution was stirred magnetically at 600 RPM and its temperature maintained at 37° C.\nTo assure the integrity of each skin section, its permeability to tritiated water was determined before application of the test formulations. Following a brief (0.5-1 hour) equilibration period, 150 μl ^3 H2 O (specific activity 0.3 μCi/ml) was layered across the top of the skin section so that the entire exposed surface was covered. After 5 minutes the aqueous layer was removed and the surface of the skin carefully blotted dry. At t=0.5 hour the saline receptor phase was removed and analyzed for radioactive content by liquid scintillation counting. Skin specimens in which absorption of ^3 H2 O was less than 1.25 μl were considered acceptable.\nSubsequently, each test formulation was applied at a target dose of 10 mg (cream) or 10 μl (butter). The cream formulation (partially hydrolyzed cocoa butter emulsion) was applied from the smooth, rounded-tip of a glass rod, the exact amount determined by weighing the rod before and after application. The butter formulation (pure cocoa butter) was first liquified under warm tap water, allowed to cool to room temperature, then applied with a 10 μl positive displacement micropipette prior to resolidifying. At 4, 8, 12, 24, 36 and 48 hours the receptor solution was removed in its entirety, replaced with fresh solution, and a 1 ml aliquot taken and assayed for radioactive content by liquid scintillation counting.\nA 1 ml aliquot of each receptor sample containing ^3 H2 O, ^3 H-retinoic acid, or ^3 H-triamcinolone acetonide was placed in a 7 ml glass scintillation vial and gelled by the addition of 5 ml Opti-Fluor (Packard Instrument Co., Meriden, Conn.). These were counted in a Packard Tri-Carb Model 1900CA Liquid scintillation Analyzer equipped with internal standard and automatic quench correction."}, "[2]": {"conditions": "currently available / commercial formulations, trunk skin; cited from earlier work"}, "[3]": {"conditions": "cream (partially hydrolyzed cocoa butter emulsion), 48 h, individual skin sections"}, "[4]": {"conditions": "cream, 48 h, average of three donors"}, "[5]": {"conditions": "cream, 48 h, average per skin donor (n=4), listed as RETINOIC ACID"}, "[6]": {"conditions": "cream, 48 h, average per skin donor (n=4), listed as Retinoic Acid"}},
  "note": "Where “and” joins values, the source holds several entries; their conditions need not be identical. Equal values may be shown once.",
  "data": [
    {"compound": "CC1=C(/C=C/C(C)=C/C=C/C(C)=C/C(=O)O)C(C)(C)CCC1", "note": "[retinoic acid]", "values": [
      {"measurement": "Penet (Total Penetration)", "setting": "[1]; [3]", "value": "824.73 and 721.36 and 745.68 and 808.17 and 1027.61 and 945.49 and 550.30 and 524.77 and 919.75 and 670.20 and 859.80 and 1068.35"},
      {"measurement": "% Abs (% Absorbed)", "setting": "[1]; [3]", "value": "14.03% and 14.76% and 13.59% and 17.11% and 17.20% and 15.81% and 13.56% and 15.67% and 21.00% and 18.37% and 18.57% and 20.67%"},
      {"measurement": "Rate of absorption, R1", "setting": "[1]; cream (partially hydrolyzed cocoa butter emulsion), sample R1, mid-t 2 h, individual skin sections", "value": "40.91 ng/cm^2 /hr and 36.94 ng/cm^2 /hr and 38.12 ng/cm^2 /hr and 45.28 ng/cm^2 /hr and 74.50 ng/cm^2 /hr and 68.54 ng/cm^2 /hr and 46.23 ng/cm^2 /hr and 49.65 ng/cm^2 /hr and 16.18 ng/cm^2 /hr and 50.09 ng/cm^2 /hr and 69.86 ng/cm^2 /hr and 77.41 ng/cm^2 /hr"},
      {"measurement": "Rate of absorption, R3", "setting": "[1]; cream (partially hydrolyzed cocoa butter emulsion), sample R3, mid-t 10 h, individual skin sections", "value": "23.20 ng/cm^2 /hr and 19.99 ng/cm^2 /hr and 20.80 ng/cm^2 /hr and 24.15 ng/cm^2 /hr and 28.97 ng/cm^2 /hr and 25.18 ng/cm^2 /hr and 16.74 ng/cm^2 /hr and 15.77 ng/cm^2 /hr and 27.41 ng/cm^2 /hr and 19.26 ng/cm^2 /hr and 26.16 ng/cm^2 /hr and 30.74 ng/cm^2 /hr"},
      {"measurement": "Rate of absorption, R4", "setting": "[1]; cream (partially hydrolyzed cocoa butter emulsion), sample R4, mid-t 18 h, individual skin sections", "value": "17.83 ng/cm^2 /hr and 16.44 ng/cm^2 /hr and 14.68 ng/cm^2 /hr and 15.42 ng/cm^2 /hr and 27.53 ng/cm^2 /hr and 24.05 ng/cm^2 /hr and 12.20 ng/cm^2 /hr and 11.56 ng/cm^2 /hr and 26.23 ng/cm^2 /hr and 18.49 ng/cm^2 /hr and 25.34 ng/cm^2 /hr and 30.20 ng/cm^2 /hr"},
      {"measurement": "Rate of absorption, R5", "setting": "[1]; cream (partially hydrolyzed cocoa butter emulsion), sample R5, mid-t 30 h, individual skin sections", "value": "14.89 ng/cm^2 /hr and 15.68 ng/cm^2 /hr and 17.30 ng/cm^2 /hr and 17.77 ng/cm^2 /hr and 15.95 ng/cm^2 /hr and 14.81 ng/cm^2 /hr and 8.32 ng/cm^2 /hr and 7.95 ng/cm^2 /hr and 15.24 ng/cm^2 /hr and 11.88 ng/cm^2 /hr and 12.50 ng/cm^2 /hr and 19.16 ng/cm^2 /hr"},
      {"measurement": "Rate of absorption, R6", "setting": "[1]; cream (partially hydrolyzed cocoa butter emulsion), sample R6, mid-t 42 h, individual skin sections", "value": "20.33 ng/cm^2 /hr and 14.24 ng/cm^2 /hr and 14.46 ng/cm^2 /hr and 17.62 ng/cm^2 /hr and 16.38 ng/cm^2 /hr and 15.16 ng/cm^2 /hr and 8.78 ng/cm^2 /hr and 7.68 ng/cm^2 /hr and 13.21 ng/cm^2 /hr and 9.49 ng/cm^2 /hr and 10.20 ng/cm^2 /hr and 14.22 ng/cm^2 /hr"},
      {"measurement": "Total Penetration", "setting": "[1]; [4]", "value": 805.52},
      {"measurement": "Penet (Total Penetration)", "setting": "[1]; [5]", "value": "774.99 and 762.04 and 879.52"},
      {"measurement": "Penet (Total Penetration)", "setting": "[1]; [6]", "value": "879.52 and 762.04 and 774.99"},
      {"measurement": "Rate of absorption, R1", "setting": "[1]; cream, R1, mid-t 2 h, average of three donors", "value": 55.06, "unit": "ng/cm^2 /hr"},
      {"measurement": "Rate of absorption, R1", "setting": "[1]; cream, R1, mid-t 2 h, average per skin donor (n=4), listed as RETINOIC ACID", "value": "40.32 ng/cm^2 /hr and 59.73 ng/cm^2 /hr and 65.14 ng/cm^2 /hr"},
      {"measurement": "Rate of absorption, R1", "setting": "[1]; cream, R1, mid-t 2 h, average per skin donor (n=4), listed as Retinoic Acid", "value": "65.14 ng/cm^2 /hr and 59.73 ng/cm^2 /hr and 40.32 ng/cm^2 /hr"},
      {"measurement": "Rate of absorption, R3", "setting": "[1]; cream, R3, mid-t 10 h, average of three donors", "value": 23.20, "unit": "ng/cm^2 /hr"},
      {"measurement": "Rate of absorption, R3", "setting": "[1]; cream, R3, mid-t 10 h, average per skin donor (n=4), listed as RETINOIC ACID", "value": "22.04 ng/cm^2 /hr and 21.67 ng/cm^2 /hr and 25.89 ng/cm^2 /hr"},
      {"measurement": "Rate of absorption, R3", "setting": "[1]; cream, R3, mid-t 10 h, average per skin donor (n=4), listed as Retinoic Acid", "value": "25.89 ng/cm^2 /hr and 21.67 ng/cm^2 /hr and 22.04 ng/cm^2 /hr"},
      {"measurement": "Rate of absorption, R4", "setting": "[1]; cream, R4, mid-t 18 h, average of three donors", "value": 20.00, "unit": "ng/cm^2 /hr"},
      {"measurement": "Rate of absorption, R4", "setting": "[1]; cream, R4, mid-t 18 h, average per skin donor (n=4), listed as RETINOIC ACID", "value": "16.09 ng/cm^2 /hr and 18.83 ng/cm^2 /hr and 25.07 ng/cm^2 /hr"},
      {"measurement": "Rate of absorption, R4", "setting": "[1]; cream, R4, mid-t 18 h, average per skin donor (n=4), listed as Retinoic Acid", "value": "25.07 ng/cm^2 /hr and 18.83 ng/cm^2 /hr and 16.09 ng/cm^2 /hr"},
      {"measurement": "Rate of absorption, R5", "setting": "[1]; cream, R5, mid-t 30 h, average of three donors", "value": 14.29, "unit": "ng/cm^2 /hr"},
      {"measurement": "Rate of absorption, R5", "setting": "[1]; cream, R5, mid-t 30 h, average per skin donor (n=4), listed as RETINOIC ACID", "value": "16.41 ng/cm^2 /hr and 11.76 ng/cm^2 /hr and 14.70 ng/cm^2 /hr"},
      {"measurement": "Rate of absorption, R5", "setting": "[1]; cream, R5, mid-t 30 h, average per skin donor (n=4), listed as Retinoic Acid", "value": "14.70 ng/cm^2 /hr and 11.76 ng/cm^2 /hr and 16.41 ng/cm^2 /hr"},
      {"measurement": "Rate of absorption, R6", "setting": "[1]; cream, R6, mid-t 42 h, average of three donors", "value": 13.47, "unit": "ng/cm^2 /hr"},
      {"measurement": "Rate of absorption, R6", "setting": "[1]; cream, R6, mid-t 42 h, average per skin donor (n=4), listed as RETINOIC ACID", "value": "16.62 ng/cm^2 /hr and 12.00 ng/cm^2 /hr and 11.78 ng/cm^2 /hr"},
      {"measurement": "Rate of absorption, R6", "setting": "[1]; cream, R6, mid-t 42 h, average per skin donor (n=4), listed as Retinoic Acid", "value": "11.78 ng/cm^2 /hr and 12.00 ng/cm^2 /hr and 16.62 ng/cm^2 /hr"},
      {"measurement": "% Absorbed / total absorption", "setting": "[1]; [4]", "value": 16.7, "unit": "%"},
      {"measurement": "% Absorbed / total absorption", "setting": "[1]; cream, 48 h, average of three donors, listed as Retinoic Acid", "value": 16.69, "unit": "%"},
      {"measurement": "% Abs (% Absorbed)", "setting": "[1]; [5]", "value": "14.87% and 15.56% and 19.65%"},
      {"measurement": "% Abs (% Absorbed)", "setting": "[1]; [6]", "value": "19.65% and 15.56% and 14.87%"},
      {"measurement": "difference between partially hydrolyzed cocoa butter emulsion and pure cocoa butter as delivery vehicle", "setting": "[1]; in words", "value": "no appreciable difference"},
      {"measurement": "average absorption", "setting": "[1]; with cocoa butter and partially hydrolyzed cocoa butter emulsion (both vehicles)", "value": 16.5, "unit": "%"},
      {"measurement": "total absorption from currently available formulations", "setting": "[2]", "value": "1-5 % of the dose"}
    ]}
  ]
}
